According to paper PMC4186413, “Identification of metabolic pathways and enzyme systems involved in the in vitro human hepatic metabolism of dronedarone, a potent new oral antiarrhythmic drug” (Pharmacology Research & Perspectives, 2014):

Tests used:
MAO = target: T1, MAO (Homo sapiens, UniProt P21397); experiment: Contribution of MAO to hepatocyte clearance (clorgyline inhibitory effect); format: in vitro ADME; conditions: for Effect of clorgyline on metabolism in hepatocytes: 5 μmol/L drug; for fm MAO, Mean ± SD: mean of hepatocyte preparations
T1 construct: host or cells: cryopreserved human hepatocytes in primary culture
T1 sequence (P21397 1-527): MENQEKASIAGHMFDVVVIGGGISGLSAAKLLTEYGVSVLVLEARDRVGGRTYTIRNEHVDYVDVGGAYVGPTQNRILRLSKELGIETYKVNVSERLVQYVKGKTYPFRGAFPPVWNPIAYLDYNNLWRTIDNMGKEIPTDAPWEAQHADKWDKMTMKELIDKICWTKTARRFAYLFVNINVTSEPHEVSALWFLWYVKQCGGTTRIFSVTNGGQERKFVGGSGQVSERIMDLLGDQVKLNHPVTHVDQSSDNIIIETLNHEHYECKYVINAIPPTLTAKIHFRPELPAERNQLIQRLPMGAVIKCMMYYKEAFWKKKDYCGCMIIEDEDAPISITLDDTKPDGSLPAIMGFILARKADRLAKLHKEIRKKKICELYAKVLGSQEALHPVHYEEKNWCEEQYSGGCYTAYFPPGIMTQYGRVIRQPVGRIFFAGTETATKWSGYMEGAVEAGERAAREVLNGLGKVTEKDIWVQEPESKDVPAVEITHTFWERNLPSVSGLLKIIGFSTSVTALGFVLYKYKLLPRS
Description: Experiments were performed in 48-well plastic plates coated with rat tail Collagen type I. Plates were seeded with 0.16 × 10^5 hepatocytes per well in a final volume of 0.2 mL and incubated at 37°C under a 95% humidified air and 5% CO2 atmosphere. After 3 h during which cells were allowed to attach, the medium was renewed with 0.1 mL serum-free medium. Then, the investigated drug or metabolic probe(s) were added directly to the incubation medium in the absence or the presence of inhibitors such as either ketoconazole as a specific and potent CYP3A inhibitor (3 μmol/L final concentration), clorgyline (0.25 μmol/L final concentration) as a potent MAO-A inhibitor or ABT as a potent but nonselective CYP isoforms inhibitor (1 mmol/L final concentration) (Fabre et al. [1988]; Bourrié et al. [1996]; Klieber et al. [2008]). Regardless of the final concentration investigated, the final solvent (DMSO) concentration never exceeded 0.2% (v/v).
To determine the metabolism of the different compounds (metabolic probes, dronedarone, N-debutyl-dronedarone, propanoic acid-dronedarone, phenol-dronedarone, and C-dealkyl-dronedarone), kinetic studies were performed over 0–24 h. For each time point, 0.1 mL of acetonitrile was added to the specific well for protein precipitation, and both extracellular medium and the cell fraction were scraped together. Cell extracts were transferred to a glass tube and stored at −20°C until analysis. Before analysis, cell homogenates were sonicated for a few seconds, homogenized and centrifuged at 6000 g for 10 min. Supernatant fluids were then analyzed for the different drugs and their specific metabolites.
The fraction metabolized (fm) by MAO, CYP3A or total CYPs was determined using the following equation: [drawing 3] where: kei is the elimination rate constant (expressed in h^−1) in the presence of the inhibitor.
The kinetics of drug disappearance were investigated using four different cryopreserved human hepatocyte preparations in primary cultures following incubation with either dronedarone or its metabolites at a concentration of 5 μmol/L. Incubations were performed either in the absence, that is control conditions, or in the presence of enzyme system inhibitors such as 3 μmol/L ketoconazole (specific and potent inhibitor of CYP3A4/5), 1 mmol/L ABT (a potent and […] inhibitor of total CYPs), or 0.25 μmol/L clorgyline (a potent MAO-A inhibitor) (Dorris [1982]). Kinetic studies were performed over 24 h.

MAO-A and MAO-B = experiment: Oxidation by recombinant human MAOs; format: in vitro ADME; conditions: 1 mg/mL, 5 μmol/L, 30 min, no cofactor
From the text: Recombinant human CYPs (Supersomes™; BD Gentes, Woburn, MA: CYP1A1, CYP1A2, CYP2A6, CYP2B6, CYP2C8, CYP2C9, CYP2C18, CYP2C19, CYP2D6, CYP2E1, CYP3A4 and CYP3A5), FMOs (Supersomes™: FMO1, FMO3, FMO5), MAOs (Supersomes™: MAO-A and MAO-B), and UGTs (Supersomes™: UGT1A1, UGT1A3, UGT1A4, UGT1A6, UGT1A7, UGT1A8, UGT1A9, UGT1A10, UGT2B4, UGT2B7, UGT2B15, and UGT2B17) expressed in baculovirus-infected insect cells and control microsomes from insect cells infected with wild-type baculovirus were all obtained from BD Gentest (Woburn, MA).
For oxidative pathways, the assay mixture was composed of human liver microsomes (1 mg·m·L^−1) or microsomes of baculovirus-infected cells expressing human enzymes (100 pmol·mL^−1 for CYPs and 1 mg·mL^−1 for FMOs and MAOs), nicotinamide adenine dinucleotide phosphate reduced form (NADPH) (1 mmol/L), 100 mmol/L potassium phosphate (pH 7.4), and 5 μmol/L of the investigated compound dissolved in DMSO in a final volume of 500 μL.
The final concentration of DMSO in the reaction mixture was less than 1% (v/v). Initial rate conditions with respect to time and protein concentration for both the disappearance of unchanged drug and the formation of respective metabolites were established in preliminary studies. The enzyme reaction was initiated by addition of NADPH (10 mmol/L aqueous solution) to achieve a final concentration of 1 mmol/L for oxidative CYP- and FMO-dependent reactions or by the drug for MAO-dependent reactions, incubated at 37°C and stopped after 0–30 min by addition of one volume of ice-cold acetonitrile.
In human liver microsomes and recombinant isoforms, the percentage of metabolism was determined on the basis of unchanged drug disappearance, using the following equation [drawing 1] where UDt = 30 min represents the unchanged drug peak area after a 30-min incubation period and UDt = 0, the unchanged drug peak area at t = 0.
To identify the specific isoforms that are capable of oxidizing dronedarone and its metabolites, assays were performed using c-DNA-expressed isoforms belonging to CYP- (CYP1A1, -1A2, -2A6, -2B6, -C8, -2C9, -2C18, -2C19, -2D6, -2E1, -3A4, and -3A5), FMO- (FMO-1, -3, and -5) and MAO- (MAO-A and MAO-B) families.
Figure 5 Contribution of individual CYPs, FMOs and MAOs to the oxidation of dronedarone and its metabolites. […] Unchanged drugs were quantified by LC/MS-MS relative to the synthetic references as described in Materials and Methods. Data are expressed as the percentage of oxidation.

[1] = HU-1358, 0.25 μmol/L clorgyline
[2] = IVT-IBG, 0.25 μmol/L clorgyline

Effect of clorgyline on metabolism in hepatocytes (MAO; 0.25 μmol/L clorgyline) | Oxidation by MAOs (MAO-A and MAO-B) | fm MAO (MAO; BD-91, 0.25 μmol/L clorgyline) | fm MAO (MAO; [1]) | fm MAO (MAO; [2]) | fm MAO, Mean ± SD (MAO; 0.25 μmol/L clorgyline) | fm MAO (MAO; BD-296, 0.25 μmol/L clorgyline) | Structure (SMILES)
no effect | not metabolized | – | – | – | – | – | CCCCN(CCCC)CCCOc1ccc(C(=O)O)cc1 [C-dealkyl-dronedarone]
minor inhibitory effect | not involved | 18% | 23% | 43% | 29 ± 14% | – | CCCCc1oc2ccc(NS(C)(=O)=O)cc2c1C(=O)c1ccc(OCCCN(CCCC)CCCC)cc1.Cl [Dronedarone, N-(2-Butyl-3-(4-(3-(dibutylamino)propoxy)benzoyl)-5-benzofuranyl)methanesulfonamide, hydrochloride]
potently inhibited | – | 88% | 86% | 83% | 84 ± 3% | 80% | CCCCNCCCOc1ccc(C(=O)c2c(CCCC)oc3ccc(NS(C)(=O)=O)cc23)cc1 [N-debutyl-dronedarone]
did not contribute | contributed to a very small extent | – | – | – | – | – | CCCCc1oc2ccc(NS(C)(=O)=O)cc2c1C(=O)c1ccc(O)cc1 [Phenol-dronedarone]

Structure (SMILES) | Effect of clorgyline on metabolism in hepatocytes (MAO; 0.25 μmol/L clorgyline) | Oxidation by MAOs (MAO-A and MAO-B) | fm MAO (MAO; BD-91, 0.25 μmol/L clorgyline) | fm MAO (MAO; [1]) | fm MAO (MAO; [2]) | fm MAO, Mean ± SD (MAO; 0.25 μmol/L clorgyline) | fm MAO (MAO; BD-296, 0.25 μmol/L clorgyline)
CCCCc1oc2ccc(NS(C)(=O)=O)cc2c1C(=O)c1ccc(OCCC(=O)O)cc1 [Propanoic acid-dronedarone] | no inhibitory effect | Neither other CYPs, nor FMOs and MAOs metabolized propanoic acid-dronedarone to any significant extent | 12% | 0% | 0% | 3 ± 5% | 0%
